Reference: patent publication US20260062449A1, “PEPTIDE COMPOSITIONS AND METHODS OF USE” (ONL Therapeutics, Inc., priority 2022, published 2026)
No end group written: not given here.

System: Jurkat cells
Assay: Cell viability preservation in vitro: cell confluence of Jurkat cells after 24-hour incubation with FasL
Assay type: cell-based
Conditions: recombinant His-tagged FasL along with anti-His antibody
Experimental: Compounds (oligopeptides) of the present disclosure were assayed for their ability to effect cell confluence following a 24-hour incubation. Jurkat cells were incubated for 24 hours with varying concentrations of compound (i.e., 200, 66.7, 22.2, 7.4, 2.5, 0.8, 0.3, and 0.1) and with or without recombinant His-tagged FasL along with an anti-His antibody. After the 24-hour incubation, cell confluence was quantified using an S3 Incucyte Imaging System (Sartorius) and a Vi-CELL XR Cell Viability Analyzer (Beckman Coulter) and compared to controls (cells incubated in the absence of compound and cells incubated with a known Fas inhibitor).

| Substance | Activity: lowest concentration that prevented loss of cell confluency |
| --- | --- |
| HHIYLGAVNYIY-NH2 [Compound A, reference compound] | A (cell protection at x < 1.0 μM) |
| NH2-HHIAAGAVNYIY-C(O)NH2 (H-HHIAAGAVNYIY-NH2) [Compound 6] | B (cell protection at 1.0 < x < 10.0 μM) |
| NH2-HHIYLGGGGGNYIY-C(O)NH2 (H-HHIYLGGGGGNYIY-NH2) [Compound 7] | B (cell protection at 1.0 < x < 10.0 μM) |
| NH2-HHIYLGSSSSNYIY-C(O)NH2 (H-HHIYLGSSSSNYIY-NH2) [Compound 8] | B (cell protection at 1.0 < x < 10.0 μM) |
| NH2-HKIYLGAVNYIY-C(O)NH2 (H-HKIYLGAVNYIY-NH2) [Compound 11] | B (cell protection at 1.0 < x < 10.0 μM) |
| NH2-KHIYLGAVNYIY-C(O)NH2 (H-KHIYLGAVNYIY-NH2) [Compound 10] | A (cell protection at x < 1.0 μM) |
| NH2-KKIYLGAVNYIY-C(O)NH2 (H-KKIYLGAVNYIY-NH2) [Compound 9] | B (cell protection at 1.0 < x < 10.0 μM) |

System: not listed separately
Assay: Aqueous solubility / solution behaviour of Met-12
Assay type: physicochemical
Conditions: not given
From the text: Experiments have clearly shown that Met-12 has to be dosed as a solution, both in vitro and in vivo, to show optimal activity, and producing such solutions in a largely aqueous medium has proven to be very difficult, especially under conditions which are acceptable for intravitreal injection. Dosing of suspensions or gels of Met-12 leads to major losses of potency. […] Despite extensive development work, the only solution formulations of Met-12 which have been found involve some very low pH solution injections (≤pH 2.8) or neat DMSO injections, all of which are suboptimal for intravitreal injections.

| aqueous solubility | Substance |
| --- | --- |
| extremely poor aqueous solubility | HHIYLGAVNYIY [Met-12, H^60HIYLGAVNYIY^71] |

Same assay, conditions: apparently clear 10 rang/mL solution in 20 mM citrate buffer pH 2.8

| Substance | loss of material upon filtration |
| --- | --- |
| HHIYLGAVNYIY [Met-12, H^60HIYLGAVNYIY^71] | considerable loss of material upon filtration |
